{"source": "patent US9717727B2", "about": "“Methods of treating and preventing leukemia and other cancers of the blood and bone” (The Trustees of Columbia University in the City of New York, priority 2011, dated 2017)", "type_in_all_cases": "in vivo, mice", "key": {"serum serotonin": {"system": "serum serotonin", "experiment": "Serum serotonin levels by ELISA, EL4 study (Example 9)", "conditions": "leukemic and non-leukemic groups; LP-533401 25 or 200 mg/kg/day oral", "protocol": "Mice were treated orally with LP-533401 (25 or 200 mg per kg of body weight per day) or vehicle. Treatments started 15 days before malignant cell injections in all sets of experiments, and continued for the indicated periods of time. LP-533401 was dissolved in polyethylene glycol (PEG) and 5% dextrose or 2.5% glucose (Sigma), and given daily by oral gavage. Mice treated with vehicle were administered, in the same way as LP533401, a solution of PEG and 5% dextrose or 2.5% glucose, daily, by oral gavage. For measurements of serum serotonin levels, mice were briefly exposed to Isoflurane (Baxter) for 30 seconds and blood was collected by cardiac puncture. Similar volumes of blood were collected from different animals for consistency in the clotting times. Serum collection from all mice was done between 9:00 am and 12:00 pm. Blood was allowed to clot on ice for 5 minutes before centrifugation at maximum speed at 4° C. for 10 minutes. The serum supernatant was removed, snap frozen and stored at −80° C. for further analysis. Serum serotonin levels were quantified by ELISA (Serotonin kit, Fitzgerald) according to manufacturer's instructions."}, "[1]": {"system": "EL4-GFP-Luc lymphoma/lymphoblastic cells", "experiment": "EL4-GFP-Luc lymphoblastic leukemia mouse model, long-term oral LP-533401 treatment (Example 9)", "protocol": "8- to 10-week-old immunocompetent male mice were inoculated with tumor cells by tail vein injection. The EL4 cell line was established from a lymphoma-induced tumor in a C57BL mouse by 9,10-dimethyl-1,2-benzanthacene. An EL4 cell line transduced with green fluorescence protein and luciferase, EL4-GFP-Luc, was injected via the lateral tail vein of the B6(Cg)-Tyrc-2J mice (500,000 cells per mouse). The EL4-GFP-Luc fusion gene was used to allow cell trafficking and tumor progression to be assessed by an in vivo imaging system.\nLeukemia engraftment and progression was monitored using the Xenogen IVIS-200 System (IVIS® imaging system, Xenogen Corporation), an in vivo imaging technology platform that allows non-invasive visualization, and tracking of cellular and genetic activity within a living organism. The system consists of a CCD camera mounted on a light-tight specimen chamber, a camera controller, a cryogenic cooler, a fluorescence light source and a computer system for data acquisition and analysis. The system is capable of imaging bioilluminescence and fluorescence in living animals.\nIn this study, since luminescence was being detected, luciferin as a substrate of luciferase was administered to the mice. The mice were monitored using the in vivo imaging system twice per week. Mice were anaesthetized using isoflurane, and then were injected intraperitoneally with luciferin (0.15 mg per g body weight) 10 minutes before the detection point. Mice were imaged using the in vivo system, setting the exposure time to 1 minute. Bioilluminescence intensity was recorded and counted.\nBlood was collected by cardiac puncture in EDTA (CBCs and blood smears) or non-EDTA (serum) coated tubes. For serum preparation, blood was kept at room temperature for 15 minutes and centrifuged at 15,700 g for 10 min at 4° C. Serum osteocalcin was measured using the Osteocalcin IRMA kit (Immutopics).\nTime-to-event analysis was used to assess two endpoints of interest, death and paralysis. The day which mice were inoculated with tumor cells was considered Day 1. Animals were followed up to 62 days. […] Kaplan-Meier curves were generated to illustrate time to death and paralysis, stratified by group status. Statistical significance of the between-group difference in the median time-to-endpoint was assessed by the log-rank test. Statistical analyses were performed using the EXCEL-XLSTAT and SAS softwares0. A P value less than 0.05 was considered statistically significant.\nMice injected with the EL-4 cell line, EL4-GFP-Luc, were used as described in Example 2. The imaging system describe in Example 2 was used.\n(§1) Mice were treated orally with LP-533401 (25 or 200 mg per kg of body weight per day) or vehicle. Treatments started 15 days before malignant cell injections in all sets of experiments, and continued for the indicated periods of time. LP-533401 was dissolved in polyethylene glycol (PEG) and 5% dextrose or 2.5% glucose (Sigma), and given daily by oral gavage. Mice treated with vehicle were administered, in the same way as LP533401, a solution of PEG and 5% dextrose or 2.5% glucose, daily, by oral gavage.\nThe mice were divided into four groups of mice: • Mice with no leukemia treated with a vehicle, i.e., non-leukemic-vehicle-treated (“WT”); • Mice with no leukemia treated with LP533401, i.e., non-leukemic-LP-533401-treated (“NL-LP”); • Mice with leukemia treated with a vehicle, i.e., leukemic-vehicle-treated (“Leuk-veh”); and • Mice with leukemia treated with LP-533401, leukemic-LP533410-treated (“Leuk-LP”).\nTreatment of the non-leukemic mice with the vehicle or LP-533401 lasted a total of 35 days and treatment of the leukemic animals with a vehicle or LP-533401 continued until the day mice were sacrificed, which occurred at different time points, depending upon the presence of signs of illness. […]"}, "osteoblasts": {"system": "osteoblasts", "experiment": "Histomorphometric bone analysis, EL4 study (Example 9)", "protocol": "Histomorphometric analyses were performed on vertebral column specimens collected from 2 months old mice using undecalcified sections using the osteomeasure analysis system (Osteometrics). Lumbar vertebrae were dissected, fixed for 24 hours in 10% formalin, dehydrated in graded ethanol series, and embedded in methyl methacrylate resin according to standard protocols (Chappard et al. (1987); Parfitt et al. (1987)).\nBone formation rate (BFR) was analyzed by the calcein double-labeling method. Calcein (Sigma) was dissolved in calcein buffer (0.15 M NaCl, 2% NaHCO3) and administered by an intraperitoneal injection of 25 μg/g body weight, 6 days and 2 days before sacrificing the animals. In experiments evaluating survival rates of animals, bone formation rate was not calculated due to the unknown time of death. Unstained 4-μm sections were used for BFR measurements.\nFor the analysis of parameters of osteoblast and osteoclast, 4-μm sections were stained with toluidine blue and tartrate-resistant acid phosphatase (TRAP), respectively. Type I collagen content and bone volume over trabecular volume (BV/TV) were analyzed using 7-μm sections by Von Gieson and Von Kossa staining […] respectively in undecalcified sections. Images were taken using a 10× objective on a Leica microscope outfitted with camera. Six to ten animals were analyzed for each group.\nas §1\nBioluminescence imaging, luciferase intensity measurement, hind-limb paralysis, blood cell counts, bone mass, osteoblast number, bone formation rate and survival were determined as previously described in Examples 2, 3, and 5-7."}, "[2]": {"conditions": "among ten leukemic mice treated"}, "[3]": {"conditions": "leukemic mice (EL4), peripheral blood"}, "[4]": {"conditions": "LP-533401 25 or 200 mg/kg/day oral"}}, "data": [{"compound": "Nc1nc(OC(c2ccc(-c3cccc(F)c3)cc2)C(F)(F)F)cc(-c2ccc(C[C@H](N)C(=O)O)cc2)n1", "note": "(stereo partly shown) [LP-533401]", "values": [{"measurement": "decrease in serum serotonin levels compared to vehicle-treated animals", "setting": "serum serotonin", "value": 30, "unit": "%"}, {"measurement": "number of treated leukemic mice that cleared their leukemia", "setting": "[1]; [2]", "value": 2}, {"measurement": "number of treated leukemic mice that never developed leukemia", "setting": "[1]; [2]", "value": 2}, {"measurement": "number of treated leukemic mice that developed leukemia at a late stage and then recovered", "setting": "[1]; among ten leukemic mice treated, day 28", "value": 1}, {"measurement": "animals that developed hind-limb paralysis", "setting": "[1]; leukemic mice (EL4)", "value": 38, "unit": "%"}, {"measurement": "reticulocyte numbers", "setting": "[1]; leukemic mice (EL4)", "value": "prevented leukemia induced suppression of reticulocyte numbers"}, {"measurement": "tumor burden by bioluminescence imaging / luciferase intensity", "setting": "[1]; leukemic mice (EL4)", "value": "decreased tumor burden"}, {"measurement": "anemia (red blood cells, hemoglobin, hematocrit)", "setting": "[1]; [3]", "value": "ameliorated anemia"}, {"measurement": "leukemia-associated increase in WBCs", "setting": "[1]; [3]", "value": "diminished"}, {"measurement": "neutrophils, monocytes and lymphocytes", "setting": "[1]; [3]", "value": "restored to normal numbers"}, {"measurement": "overall survival", "setting": "[1]; mice with leukemia (EL4)", "value": "significantly longer overall survival"}, {"measurement": "bone resorption", "setting": "osteoblasts; EL4 study", "value": "not affected"}, {"measurement": "increase in bone formation rate", "setting": "osteoblasts; [4]", "value": 30, "unit": "%"}, {"measurement": "increase in bone mass", "setting": "osteoblasts; [4]", "value": 30, "unit": "%"}, {"measurement": "increase in osteoblast numbers", "setting": "osteoblasts; [4]", "value": 30, "unit": "%"}, {"measurement": "leukemia-induced decrease in osteoblast numbers, bone formation rate and trabecular bone volume", "setting": "osteoblasts; leukemic mice (EL4)", "value": "inhibited the decrease in osteoblast numbers, bone formation rate, and trabecular bone volume"}]}]}
